Assays:
[1] = system: HIV-1 Env complexes; test: Association of gp120 with detergent-solubilized His6-tagged Env complexes (Ni-NTA precipitation, Western blot)
Experimental: Association of gp120 with Env complexes: The non-covalent association of gp120 with HIV-1 Env complexes was studied using carboxy-terminally His6-tagged Envs from three different sources: 1) VLPs produced from A549-Gag/Env cells; 2) A549 cells expressing HIV-1AD8 and HIV-1CH848 Envs; and 3) HOS cells transiently expressing wild-type HIV-1JR-FL Env and wild-type and mutant HIV-1AD8 Envs. VLP and cell lysates from A549 cells were prepared in 1.5% Triton X-100. Cell lysates from HOS cells were prepared in 1.5% Cymal-5 (Anatrace). The VLP and cell lysates were clarified as described above. DMSO, a compound described herein, sCD4 or the CD4-mimetic compound, BNM-III-170 (Melillo, ACS Med Chem Letters 7, 33-334, 2016), was added to the lysate. Aliquots of the lysates were saved for Western blotting to detect the gp160, gp120 and gp41 glycoproteins in the input sample. The bulk of the lysates was incubated with nickel-nitriloacetic acid (Ni-NTA) beads (Qiagen) for 1.5 hours at 4° C. The beads were pelleted (1000 rpm for 1 minute at room temperature), washed 3 times with wash buffer with 1% Triton X-100, boiled in LDS sample buffer, and analyzed by Western blotting as described above.

[2] = system: cell-surface HIV-1AD8 Env; test: Recognition of cell-surface Env by C34-Ig and CD4-Ig; assay type: cell-based
Experimental: (§1) Immunoprecipitation of cell-surface Env: Doxycycline-induced A549-Env cells were washed twice with washing buffer (1×PBS+5% FBS), with or without 10 μM BMS-806 or compounds described herein. The cells were then incubated with 5 μg/ml antibody for one hour at 4° C. in the continued presence or absence of the compounds described herein. After washing four times in washing buffer, the cells were lysed in NP-40 lysis buffer (0.5% NP-40, 0.5 M NaCl, 10 mM Tris, pH 7.5) for five minutes at 4° C. with gentle agitation. Unless specifically indicated otherwise, compounds described herein were not added to the NP-40 lysis buffer. The lysates were cleared by centrifugation at 13,200×g for 20 minutes at 4° C., and the clarified supernatants were incubated with Protein A-Sepharose beads (50 μl of 25 mg/ml in PBS per sample) for one hour at room temperature. The beads were pelleted (1000 rpm×1 min) and washed three times with final wash buffer (200 mM Tris-HCl, pH 8.0, 100 mM (NH4)2SO4, 1 M NaCl and 0.1% NP-40). The beads were suspended in LDS sample buffer, boiled and analyzed by Western blotting using 1:2000 goat anti-gp120 polyclonal antibody (ThermoFisher) and 1:2000 HRP-conjugated rabbit anti-goat IgG (ThermoFisher). The transmembrane Env was analyzed by Western blot with the 4E10 anti-gp41 antibody and HRP-conjugated goat anti-human IgG (Santa Cruz).
The effect of BMS-806 on the recognition of the cell-surface HIV-1AD8 Env by CD4-Ig and C34-Ig was evaluated. CD4-Ig is a soluble CD4-immunoglobulin fusion protein, and C34-Ig contains the gp41 HR2 region fused to an immunoglobulin Fc. C34-Ig efficiently recognized the cell-surface Env only after incubation with soluble CD4 (sCD4) (FIG. 1C, left panel). BMS-806 blocked C34-Ig recognition of Env in the presence of sCD4.

[3] = system: cell-surface HIV-1AD8 Env (A549-Env cells); test: Immunoprecipitation of cell-surface Env by antibody panel; assay type: cell-based; settings: 10 μM
Experimental: as §1

[4] = HIV-1AD8 Env variant in HOS cell lysates

With `COc1ccnc2[nH]cc(C(=O)C(=O)N3CCN(C(=O)c4ccccc4)C[C@H]3C)c12` [BMS-806, reference compound] the “sCD4-induced shedding of gp120 from Env complexes” value ([1]; 10 μM added to cell lysates) was “could be blocked”, the “BMS-806-induced gp120-Env association, I559F mutant” value [1, 4] was “abrogated responsiveness to BMS-806” and the “BMS-806-induced gp120-Env association, L193A mutant” value [1, 4] was “poor responsiveness”. For the same compound, the “CD4-Ig binding to the gp120 and gp160 Envs” value ([2]; 500 nM) was “still detected”, the “C34-Ig binding to Env” value ([2]; 500 nM, with sCD4) was “inhibited almost completely” and the “CD4-Ig recognition of Env” value ([2]; 10 μM) was “inhibited CD4-Ig recognition of the gp120 glycoprotein on the mature Env, but not the uncleaved gp160 Env”. For the same compound, the “Recognition of cell-surface Env by poorly neutralizing antibodies” value ([3]; 17b, 19b, 902090, F105) was “decreased the recognition of the uncleaved Env” and the “Binding of bNAbs to mature cell-surface gp120” value ([3]; PG9, PG16, PGT145, PGT151, 35022) was “increased the binding of some bNAbs”.
